Structures are written as SMILES. Counter-ions that a name gives are not always drawn. Like-named read-outs stand apart in the source and are kept apart here.

The target in data set [1] is T1, Dopamine D2 receptor (Homo sapiens, UniProt P14416).
T1 construct: purchased Receptor Biology (now owned by NEN) RBHD2CM
Nature of the data set: Dopamine D2 receptor binding assay ([125I]iodospiperone). As to the method: The assay buffers used are 50 mM Tris-HCl pH 7.4, 120 mM NaCl, 5 mM KCl, 5 mM MgCl2, 1 mM EDTA for the Dopamine D2s receptor binding assay. […] The membranes used are from Receptor Biology (now owned by NEN), Cat # RBHD2CM for the D2 receptor.
Compounds are obtained as 10 mM stocks in 100% DMSO. They are diluted to 1 mM in 100% DMSO by adding 180 μL DMSO to 20 μL of stock in 96 well plates using a multidrop. […] This is done using a TECAN robot.
The radioligand is diluted in assay buffer to provide 0.1 nM for the D2 assay. Each vial of membranes is diluted up to 92 mL in assay buffer. The final assay volume is 250 μL consisting of 210 μl of diluted membranes, 20 μL of compound or 10% DMSO for total binding, and 20 μL of diluted radioligand. The compounds are transferred from drug dilution plates into coming 96 well assay plates using a 96 well Multimek pipettor. Radioligand and membranes are added to assay plates using multidrop pipettors. Non-specific binding is determined in wells containing a final concentration of 5 μM haloperidol. The final drug concentration range in half logs is from 10 μM down to 0.1 nM.
After addition of drug, membrane, and ligand, the plates are incubated for 2 hours at room temperature. During this time 96 well Millipore filter plates (MAFBNOB50) are soaked for a least 30 minutes with 200 μL per well of 0.5% polyethyleneimine.
The 0.5% PEI is removed from filterplate wells using a TiterTek MAP aspirator and 200 μL of the incubation mixture is transferred from the incubation plate to the filterplate after mixing. This transfer is done using the 96 tip Mutimek pipettor. After transfer to the filterplate filterplates are extracted and ished twice with 220 μL per well of cold buffer on the MAP aspirator. The peel away bottoms are removed from the filterplates and 60 μL per well of microscint 20 scintillation fluid is added per well using a multidrop. […]

Data set [2] addresses T2, human Histamine-1 receptors (Homo sapiens, UniProt P35367).
T2 construct: expressed in transfected cells
Nature of the data set: 3H-Pyrilamine SPA binding to human Histamine-1 receptors. As to conditions: read-out: Receptor affinity (Ki, nM) H1. As to the method: Their ability of a compound to block histamine H1 receptors can be estimated in vitro by measuring the in vitro histamine H1 receptor affinity. […] The ratio of in vitro histamine H1 receptor affinity divided by the in vitro dopamine D2 receptor affinity, both expressed as Ki's, is an estimate of a compound's likelihood to cause weight gain at therapeutic levels. […] Incubations were performed in a total volume of 200 μl in 96 well assay plates. 50 μl ^3H-pyrilamine (NEN, 20 Ci/mmol, final concentration=3.0 nM) was added to 50 μl of test compounds dissolved in water (±DMSO and/or glacial acetic acid). 50 μl Wheat Germ Agglutinin (WGA) bead, at 1 mg/well, (Amersham Life Sciences) in assay buffer (67 mM TrisCl pH 7.4) were then added. Membrane homogenate from cells expressing human Histamine-1 receptors, approximately 700,000 cells/well, was added last. The plates were covered with sealing tape (FasCal) and allowed to incubate at room temperature for 2 hours. The plates were then centrifuged at approximately 200×g for 10 minutes at room temperature. The amount of ^3H-pyrilamine bound to the membranes, ie proximate to the WGA bead, was then determined using a Wallac MicroBeta Trilux Scintillation Counter (Wallac, Inc.).

The target of data set [3] is T3, dopamine D2 receptors (Rattus norvegicus, UniProt P61169).
T3 construct: from tissue; host or cells: male Sprague Dawley rats, nucleus accumbens (in vivo)
T3 sequence (P61169 whole entry): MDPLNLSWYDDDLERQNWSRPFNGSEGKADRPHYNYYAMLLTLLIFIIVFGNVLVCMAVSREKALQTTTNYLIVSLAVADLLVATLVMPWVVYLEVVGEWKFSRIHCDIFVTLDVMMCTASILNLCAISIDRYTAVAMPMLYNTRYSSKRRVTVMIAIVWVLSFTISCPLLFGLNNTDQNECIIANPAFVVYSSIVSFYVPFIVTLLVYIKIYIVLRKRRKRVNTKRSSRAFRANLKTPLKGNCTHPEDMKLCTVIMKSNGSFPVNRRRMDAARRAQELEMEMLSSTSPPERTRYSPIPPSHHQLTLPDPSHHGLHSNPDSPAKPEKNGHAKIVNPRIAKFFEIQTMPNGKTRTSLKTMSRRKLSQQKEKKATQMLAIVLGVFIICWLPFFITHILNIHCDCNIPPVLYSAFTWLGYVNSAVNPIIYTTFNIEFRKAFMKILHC
Nature of the data set: DOPAC concentrations in rat nucleus accumbens (in vivo D2 receptor blockade). As to conditions: dose that increases DOPAC to 200% of control, 90 minutes after gavage. As to the method:
Antipsychotics are believed to exert at least part of their therapeutic effects through blockade of the dopamine D2 receptor. The ability of a compound to block dopamine D2 receptors in the rat in vivo was determined by measuring the effect of the compound on the level of DOPAC (3,4-dihydroxyphenylacetic acid), a metabolite of dopamine, in nucleus accumbeus of the rat. Dopamine D2 receptor antagonists increase the release of dopamine into the synapse due to blockade of the dopamine D2 autoreceptor. This increased release of dopamine cannot be directly measured, since the efficiency of the dopamine reuptake system prevents increases in synaptic dopamine concentrations. Instead, increases in the levels of the dopamine metabolites DOPAC (3,4-dihydroxyphenylacetic acid) and HVA (homovanillic acid) reflect increased neuronal dopaminergic activity in vivo.
(§1) Male Sprague Dawley rats (Harlan Sprague Dawley, Inc., Indianapolis, Ind.) weighing 110 grams were fasted overnight. […] All other compounds were administered at 5 ml/kg in dilute lactic acid. Tissues were dissected, frozen on dry ice and stored at −70° C. prior to analysis.
Rat nucleus accumbens DOPAC (3,4-dihydroxyphenylacetic acid) concentrations were measured using high-pressure liquid chromatography with electrochemical detection (HPLC-EC). Tissues were sonicated in 1 ml 0.1N TCA. After centrifugation, a 25 µl aliquot of supernatant was injected onto a BDS Hypersyl C18 column (150×4.6 mm, Keystone Scientific). The elution buffer contained 75 mM sodium phosphate monobasic, 0.5 mM EDTA, 350 mg/L 1-octanesulfonate sodium, 7% acetonitrile (v/v) and 0.7% tetrahydrofuran (v/v), pH 3.0. The flow rate was 1.2 ml/min at 40° C. Peak heights were measured at 750 mV at 10 nA sensitivity and compared with samples containing known amounts of DOPAC standards.

Data set [4] has as its target T4, hypothalamic histamine H1 receptors (Rattus norvegicus, UniProt P31390).
T4 construct: from tissue; host or cells: hypothalamus of male Sprague Dawley rats
In words: Histamine H1 ex vivo binding ([3H]-pyrilamine, rat hypothalamic homogenates). The class given is in vivo. As to conditions: rat hypothalamus; dose required to occupy 50% of histamine H1 receptors; 90 minutes after gavage. As to the method: The in vivo potency of a compound to occupy hypothalamic histamine H1 receptors in the rat was determined using a histamine H1 ex vivo binding assay.
as §1
Ex vivo binding of the histamine H1 antagonist [^3H]-pyrilamine (NEN Life Science Products) to rat hypothalamic homogenates was determined. Tissues were homogenized in 600 μl incubation buffer (50 mM sodium phosphate monobasic, pH 7.4) and pre-incubated 10 minutes at 37° C. to remove endogenous histamine. Triplicate tubes, each containing 100 μl homogenate, were combined with 1 ml buffer containing 3 nM [^3H]-pyrilamine and incubated 30 minutes at 25° C. […] [^3H]-pyrilamine binding was measured after separation filtration using a Brandell cell harvester with GF/C filters which had been soaked in 0.1% polyethylenimine. ED50 values were determined using the Allfit statistical program for displacement binding.

Where [5] appears, read: read-out: Receptor affinity (Ki, nM) D2.
[6] abbreviates: relative Ki scale of Table 5, read-out: Relative D2 Receptor Binding Affinity Ki.

T1 sequence (P14416 1-414 isoform P14416-2): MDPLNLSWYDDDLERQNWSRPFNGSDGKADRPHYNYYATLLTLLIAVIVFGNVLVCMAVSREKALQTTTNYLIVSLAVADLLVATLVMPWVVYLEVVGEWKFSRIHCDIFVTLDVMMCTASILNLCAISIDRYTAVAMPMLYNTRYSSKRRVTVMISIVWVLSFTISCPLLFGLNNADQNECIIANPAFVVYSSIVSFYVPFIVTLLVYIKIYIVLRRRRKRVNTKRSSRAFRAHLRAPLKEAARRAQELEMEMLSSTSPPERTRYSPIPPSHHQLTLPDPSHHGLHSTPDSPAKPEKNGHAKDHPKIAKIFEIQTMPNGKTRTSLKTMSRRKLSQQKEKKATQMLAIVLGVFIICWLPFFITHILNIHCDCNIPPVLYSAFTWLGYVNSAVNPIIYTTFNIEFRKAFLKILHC
T2 sequence (P35367 whole entry): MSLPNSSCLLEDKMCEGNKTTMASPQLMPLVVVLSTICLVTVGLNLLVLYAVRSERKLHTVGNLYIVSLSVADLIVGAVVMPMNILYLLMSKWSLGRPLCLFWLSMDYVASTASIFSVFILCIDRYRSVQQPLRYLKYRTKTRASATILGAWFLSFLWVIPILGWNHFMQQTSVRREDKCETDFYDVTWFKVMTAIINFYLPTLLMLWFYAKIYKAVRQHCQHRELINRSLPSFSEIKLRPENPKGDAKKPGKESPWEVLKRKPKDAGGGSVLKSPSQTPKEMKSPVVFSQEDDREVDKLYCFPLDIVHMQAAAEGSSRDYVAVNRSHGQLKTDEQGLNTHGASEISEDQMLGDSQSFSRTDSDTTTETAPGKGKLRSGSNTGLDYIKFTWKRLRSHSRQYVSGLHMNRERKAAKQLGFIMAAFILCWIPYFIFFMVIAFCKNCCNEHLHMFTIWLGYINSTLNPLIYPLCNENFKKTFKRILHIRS
T4 sequence (P31390 whole entry): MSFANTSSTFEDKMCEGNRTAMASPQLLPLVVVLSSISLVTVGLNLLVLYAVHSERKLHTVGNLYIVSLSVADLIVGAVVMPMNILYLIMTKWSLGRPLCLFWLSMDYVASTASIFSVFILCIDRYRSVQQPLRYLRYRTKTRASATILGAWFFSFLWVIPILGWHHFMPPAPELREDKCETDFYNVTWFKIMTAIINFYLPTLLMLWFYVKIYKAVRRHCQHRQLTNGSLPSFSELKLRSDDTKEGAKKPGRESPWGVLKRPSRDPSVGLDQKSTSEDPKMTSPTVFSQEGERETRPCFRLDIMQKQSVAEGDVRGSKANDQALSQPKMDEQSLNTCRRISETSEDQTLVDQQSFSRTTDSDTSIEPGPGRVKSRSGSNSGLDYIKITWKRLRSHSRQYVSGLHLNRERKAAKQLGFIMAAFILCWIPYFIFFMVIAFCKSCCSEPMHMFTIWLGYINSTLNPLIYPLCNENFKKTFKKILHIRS

What is called Ki is a measure of affinity in units of concentration, obtained from inhibition or displacement. Regarding `COCC[C@H]1CN(C2=Nc3cc(Cl)ccc3Nc3sc(C)cc32)CCN1C` [Example 292, (S)-7-Chloro-10-[3-(2-methoxy-ethyl)-4-methyl-piperazin-1-yl]-2-methyl-4H-3-thia-4,9-diaza-benzo[f]azulene dihydrochloride], the Ki came to 13 nM in data set [1] (setting [5]) and 48 nM in data set [2]. The “In vivo activity D2: DOPAC elevation (ED200)” value (“In vivo activity D2” below) in data set [3] was 7.5 mg/kg, po. Besides, the “In vivo activity H1: H1 ex vivo binding (ED50)” value (shortened to “In vivo activity H1”) in data set [4] is >30 mg/kg, po.

A word on the melting point: it is the temperature of the solid-liquid transition. Regarding `Cc1cc2c(s1)Nc1ccccc1N=C2N1CCN[C@@H](CCO)C1.Cl.Cl` [Example 240, (S)-2-[4-(2-Methyl-4H-3-thia-4,9-diazabenzo[f]azulene-10-yl)-piperazin-2-yl]ethanol dihydrochloride], the melting point is > 250 °C (dec.). Moreover, the Ki in data set [1] (setting [6]) lay in the range of 10 to 100 nM.

With `COCC[C@H]1CN(C2=Nc3ccccc3Nc3ccc(C)cc32)CCN1C` [Example 216, (S)-2-Methyl-11-[3-(2-methoxy-ethyl)-4-methyl-piperazin-1-yl]-5H-dibenzo[b,e][1,4]diazepine], the melting point is 60 °C (dec.). Further, in data set [1] (setting [6]), the Ki is 100 to 1000 nM.

Regarding `Cc1cc2c(s1)Nc1ccccc1N=C2N1CCN[C@H](CCO)C1.Cl.Cl` [Example 241, (R)-2-[4-(2-Methyl-4H-3-thia-4,9-diazabenzo[f]azulene-10-yl)-piperazin-2-yl]ethanol dihydrochloride], the melting point is > 250 °C (dec.). The Ki in data set [1] (setting [6]) is 100 to 1000 nM.

For the compound `COCC[C@H]1CN(C2=Nc3ccccc3Nc3sc(C(C)C)nc32)CCN1C.Cl.Cl` [Example 327, (S)-10-[3-(2-Methoxyethyl)-4-methylpiperazin-1-yl]-2-isopropyl-4H-3-thia-1,4,9-triazabenzo[f]azulene dihydrochloride], the results for the Ki in data set [1] (setting [5]), in data set [1] (setting [6]) and in data set [2] were 9 nM, less than 10 nM and 91 nM, respectively. Besides, the “In vivo activity D2” value in data set [3] is 4 mg/kg, po. Also, the “In vivo activity H1” value in data set [4] is listed as >30 mg/kg, po.

For the compound `Cc1cc2c(s1)Nc1ccccc1N=C2N1CCN(C)[C@@H](CO)C1` [Example 259, (R)-[1-Methyl-4-(2-methyl-4H-3-thia-4,9-diaza-benzo[f]azulen-10-yl)-piperazin-2-yl]-methanol], the melting point lay within 118 to 124 °C.

With `COCC[C@H]1CN(C2=Nc3ccccc3Nc3ccc(C(C)C)cc32)CCN1C` (as salt: hydrochloride), the melting point came to 210 °C.

In turn, `CCc1cc2c(s1)Nc1cc(F)ccc1N=C2N1CCN(C)[C@@H](CCOC)C1` (as salt: hydrochloride) [Example 280, (S)-6-Fluoro-10-[3-(2-methoxy-ethyl)-4-methyl-piperazin-1-yl]-2-ethyl-4H-3-thia-4,9-diaza-benzo[f]azulene dihydrochloride] registered a melting point of 186 to 188 °C.

With `Cc1cc2c(s1)Nc1ccccc1N=C2N1CCN[C@@H](COc2ccccc2)C1` [Example 244, (R)-10-(3-Phenoxymethyl-piperazin-1-yl)-2-methyl-4H-3-thia-4,9-diaza-benzo[f]azulene], the melting point fell in the range of 64 to 81 °C.

Consider `COCC[C@H]1CN(C2=Nc3cc(Cl)ccc3Nc3sc(C)cc32)CCN1` [Example 258, (S)-7-Chloro-10-[3-(2-methoxy-ethyl)-piperazin-1-yl]-2-methyl-4H-3-thia-4,9-diazabenzo[f]azulene], for which the melting point was 179 to 183 °C (dec.).

Compound `Cc1cc2c(s1)Nc1cc(F)ccc1N=C2N1CCN(C)[C@@H](CCO)C1.Cl.Cl` displayed a melting point of 230 °C.

As to `CCOCC[C@H]1CN(C2=Nc3ccc(F)cc3Nc3sc(C)cc32)CCN1C.Cl`, the melting point lay within 180 to 182 °C.

For the compound `COCC[C@H]1CN(C2=Nc3cc(F)c(F)cc3Nc3sc(C)cc32)CCN1C.Cl.Cl` [Example 288, (S)-6,7-Difluoro-10-[3-(2-methoxy-ethyl)-4-methyl-piperazin-1-yl]-2-methyl-4H-3-thia-4,9-diaza-benzo[f]azulene hydrochloride], the Ki in data set [1] (setting [5]) turned out to be 11 nM; in data set [2] it was 80 nM. The “In vivo activity D2” value in data set [3] is on record as 6.4 mg/kg, po. Also, in data set [4], the “In vivo activity H1” value is >30 mg/kg, po.

`COCC[C@H]1CN(C2=Nc3ccccc3Nc3ccc(C(F)(F)F)cc32)CCN1C` [Example 221, (S)-2-Trifluoromethyl-11-[3-(2-methoxy-ethyl)-4-methyl-piperazin-1-yl]-5H-dibenzo[b,e][1,4]diazepine]: the melting point was in the range of 48 to 56 °C.

Take `COCC[C@H]1CN(C2=Nc3cc(F)c(F)cc3Nc3sc(C)cc32)CCN1` [Example 254, (S)-6,7-Difluoro-10-[3-(2-methoxy-ethyl)-piperazin-1-yl]-2-methyl-4H-3-thia-4,9-diaza-benzo[f]azulene]: the melting point is 198 to 202 °C (dec.).

With `COCC[C@H]1CN(C2=Nc3ccccc3Nc3ccc(C(F)(F)F)cc32)CCN1` [Example 202, (S)-2-Trifluoromethyl-11-[3-(2-methoxy-ethyl)-piperazin-1-yl]-5H-dibenzo[b,e][1,4]diazepine], the melting point is 71 to 82 °C.

In the case of `COCC[C@H]1CN(C2=Nc3ccccc3Nc3ccc(C)cc32)CCN1` [Example 199, (S)-2-Methyl-11-[3-(2-methoxy-ethyl)-piperazin-1-yl]-5H-dibenzo[b,e][1,4]diazepine], the melting point is 63 °C (dec.). Also, the Ki in data set [1] (setting [6]) fell in the range of 100 to 1000 nM.

For `COCC[C@H]1CN(C2=Nc3ccc(F)cc3Nc3sc(C)cc32)CCN1C` [Example 279, (S)-6-Fluoro-10-[3-(2-methoxy-ethyl)-4-methyl-piperazin-1-yl]-2-methyl-4H-3-thia-4,9-diaza-benzo[f]azulene hydrochloride], the Ki in data set [1] (setting [5]) is 6 nM; in data set [2] it was 24 nM. The “In vivo activity D2” value in data set [3] is recorded as 6 mg/kg, po. The “In vivo activity H1” value in data set [4] is on record as >30 mg/kg, po.
